Laboratory results taken from patent US5283244A, “Fused pyrazine derivatives” (Yamanouchi Pharmaceutical Co., Ltd., priority 1990, dated 1994).
Where a name gives a salt, the structure may show the parent alone.

What was measured:
[1] = test system: NMDA-induced neuropathy, animal models of epilepsy or brain ischemia; settings: reported in the literature; cited from earlier work
[2] = test system: animal model of brain ischemia; settings: reported in the literature; cited from earlier work
DBA/2 mice = assay: Audiogenic convulsion inhibitory activity in DBA/2 mice; format: in vivo; settings: Mus musculus, ip, 0.25 h, intraperitoneal, given 15 minutes before sound stimulation, read-out: dose at which audiogenic convulsions were inhibited
Method: Determination of Audiogenic Convulsion Inhibitory Activity in DBA/2 Mice
Ten male mice, 21-28 days old, were placed in a soundproof box and loaded with a sound stimulus of 12 KHz and 120 dB for 1 minute or until the mice developed tonic convulsions.
The test compound was suspended in 0.5% methylcellulose solution or dissolved in physiological saline and administered intraperitoneally 45 or 15 minutes before sound stimulation.
The effect of the test compound was evaluated according to the onset of convulsion and the minimum effective dose (MED) was determined.

[3] = test system: nerve cells in the hippocampus CA1; assay: Neuron-protective action in the hippocampus, gerbil model of ischemia; format: in vivo; settings: administered 60, 70 and 85 minutes after 5-minute ischemia (regimen 2, 30 mg/kg/dose i.p.)
Method: Neuron-Protective Action in the Hippocampus
The protective action on nerve cell necrosis due to cerebral ischemia was tested using a gerbil model of ischemia constructed by occlusion of the bilateral common carotid arteries.
The bilateral common carotid arteries of the gerbil were occluded for 5 minutes under halothane anesthesia with the animal kept warm to avoid hypothermia and, then, the animal was allowed to recover from anesthesia. After 4 days, the brain was isolated and sections were prepared for histological examination of the degree of neuronal damage in the hippocampus CA1.
The test compound, either suspended in 0.5% methylcellulose solution or dissolved in physiological saline, was administered intraperitoneally. Two dosage regimens were employed. In regimen 1, 30 mg/kg/dose was administered 45 and 15 minutes before ischemia and 5 minutes and 1, 2, 3, 6 and 24 hours after obtaining re-patency. In regimen 2, 30 mg/kg/dose was administered 60, 70 and 85 minutes after obtaining re-patency.
Histopathological examination was performed using a light microscope. The degree of nerve cell impairment in the hippocampus CA1 area was rated on a 4-point scale of no lesion (score 0), slight necrosis (score 1), moderate necrosis (score 2) and complete necrosis (score 3).

AMPA receptor = assay: [3H]-AMPA binding inhibitory activity; settings: rat cerebral membrane
Method: Determination of [^3 H]-AMPA Binding Activity
A mixture (0.5 ml) of about 45 nM [^3 H]-AMPA (2-amino-3-(3-hydroxy-5-methyl-4-isoxazole)propionic acid), about […] of rat cerebral membrane specimen and the test compound was allowed to react on ice-water for 45 minutes. The amount of [^3 H]-AMPA bound to quisqualic acid receptors was determined by the filtration method. Of the total amount of binding, the portion substituted for by 10 μM quisqualic acid was regarded as specific binding. The test compound was evaluated by determining the percentage inhibition of the specific binding.

For `NC(CCCCCP(=O)(O)O)C(=O)O` (stereo not shown) [2-amino-7-phosphonoheptanoic acid], the “efficacy in NMDA-induced neuropathy and in animal models of epilepsy or brain ischemia” value [1] is listed as “effective”.
For `NC1CCN(O)C1=O` (stereo not shown) [HA-966], the “efficacy in an animal model of brain ischemia” value [2] is given as “effective”.
In the case of `NS(=O)(=O)c1cccc2c1c([N+](=O)[O-])cc1[nH]c(=O)c(=O)[nH]c12` [NBQX], the “efficacy in an animal model of brain ischemia” value [2] is listed as “effective”.
In the case of `NC(CCCP(=O)(O)O)C(=O)O` (stereo not shown) [2-amino-5-phosphonovalerianic acid], the “efficacy in NMDA-induced neuropathy and in animal models of epilepsy or brain ischemia” value [1] is given as “effective”.
With `O=c1[nH]c2cc(-n3ccnc3)c([N+](=O)[O-])cc2[nH]c1=O` [Example 15, 6-imidazolyl-7-nitroquinoxaline-2,3-(1H,4H)-dione] the minimal effective dose (DBA/2 mice) was 3 mg/kg, the “lesion score (hippocampus CA1, scale 0-3)” value [3] was 1.2 and the neuron protecting activity [3] was 60%.
In the case of `O=c1[nH]c2cc([N+](=O)[O-])c(-n3ccnc3)cc2n(O)c1=O` [Example 8, 1-hydroxy-7-imidazolyl-6-nitroquinoxaline-2,3-(1H,4H)-dione], the “AMPA receptor binding inhibitory activity” value (AMPA receptor; at 1 μM) is reported as 96% and the Ki (AMPA receptor) is reported as 21 nM.
Molecule `O=c1[nH]c2cc(-n3ccnc3)c(C(F)(F)F)cc2[nH]c1=O` [Example 9, 6-(1-imidazolyl)-7-trifluoromethylquinoxaline-2,3-(1H,4H)-dione hydrochloride hydrate] has a minimal effective dose (DBA/2 mice) of 3 mg/kg.
